Literature values in patent US8475839B2 (Novartis AG, priority 2006, dated 2013).

How the values were obtained:
[1] = not given; remark: listed apart in the source

| solubility in water | absolute oral bioavailability [1] | absolute oral bioavailability, wide range ([1]; range around the about 25% value) | Structure (SMILES) |
| --- | --- | --- | --- |
| slightly soluble | 64-90% | – | CCOC(=O)C1=C(COCCN)NC(C)=C(C(=O)OC)C1c1ccccc1Cl (centres unmarked) [Amlodipine besylate, 3-ethyl-5-methyl-2(2-aminoethoxymethyl)-4-(2-chlrorophenyl)-1,4-dihydro-6-methyl-3,5-pyridinedicarboxylate benzenesulphonate] |
| – | 60-80% | – | NS(=O)(=O)c1cc2c(cc1Cl)NCNS2(=O)=O [Hydrochlorothiazide] |
| – | about 25% | 10-35% | CCCCC(=O)N(Cc1ccc(-c2ccccc2-c2nnn[nH]2)cc1)[C@H](C(=O)O)C(C)C [valsartan, (S)-N-valeryl-N-{[2′-(1H-tetrazole-5-yl)-biphenyl-4-yl]-methyl}-valine] |
